Drawing on ChEMBL document CHEMBL1123565, “Synthesis and 5-hydroxytryptamine antagonist activity of 2-[[2-(dimethylamino)ethyl]thio]-3-phenylquinoline and its analogues” (J Med Chem, 1987), this text covers ED50 and ID50 for 31 compounds.

The source made the active and inactive calls. The rule behind the calls is not given here.

For assay [1], the system named is Mus musculus. The experiment in a line: Antagonistic activity test against 5-Hydroxytryptamine-induced head shake in mouse after intraperitoneal administration. It counts as functional. The conditions noted are these: ip, read-out: ID50 (the source's name).
For assay [2], the system named is Rattus norvegicus. The experiment in a line: Antagonistic activity against fenfluramine induced hyperthermia in rat after peroral administration. It counts as functional. As to conditions: po, read-out: ID50 (the source's name).
Assay [3] relates to Rattus norvegicus. The experiment in a line: compound was tested for antagonistic activity against fenfluramine induced hyperthermia in rat after peroral administration at 50 mg/kg; NA denotes not active. The assay is classed as functional, organism-based. Further details: dose 50 mg/kg.
The test system of assay [4] is Mus musculus. The experiment in a line: compound was tested for antagonistic activity against 5-Hydroxytryptamine-induced head shake in mouse after intraperitoneal administration; NA denotes not active at a dose of 50 mg/kg. Further details: dose 50 mg/kg. The assay is classed as functional, organism-based.
Assay [5] concerns Rattus norvegicus. The experiment in a line: compound was tested for antagonistic activity against fenfluramine induced hyperthermia in rat after peroral administration at 50 mg/kg. It counts as functional, organism-based. Further details: dose 50 mg/kg.
Assay [6] concerns Mus musculus. The experiment in a line: compound was tested for antagonistic activity against 5-Hydroxytryptamine-induced head shake in mouse after intraperitoneal administration; NA denotes not active. The assay is classed as functional, organism-based.
The species named for assay [7] is Rattus norvegicus. Briefly: compound was tested for antagonistic activity against fenfluramine induced hyperthermia in rat. It counts as functional. The conditions noted are these: read-out: ID50 (the source's name).
In assay [8] the test system is Rattus norvegicus. The experiment in a line: compound was tested for antagonistic activity against fenfluramine induced hyperthermia in rat after peroral administration; NA denotes not active at a dose of 50 mg/kg. It counts as functional, organism-based. Further details: dose 50 mg/kg.
Assay [9] is filed under the species Mus musculus. Briefly: compound was tested for antagonistic activity against 5-Hydroxytryptamine-induced head shake in mouse. It counts as functional. The conditions noted are these: read-out: ID50 (the source's name).

`Cc1ccccc1-c1cc2ccccc2nc1SCCN(C)C.Cl`: the figures for the ED50 in the assay on Mus musculus [1] and with Rattus norvegicus [2] were 3 mg/kg and 50 mg/kg, respectively.

As for `COc1ccccc1-c1cc2ccccc2nc1SCCN(C)C.Cl`, the ED50 came to 1.2 mg/kg with Mus musculus [1] and 4.6 mg/kg in the assay on Rattus norvegicus [2].

Consider `CCCCc1cc2ccccc2nc1SCCN(C)C.Cl`, for which the values for the ED50 in the assay on Mus musculus [1] and in the assay with Rattus norvegicus [2] were 2.3 mg/kg and 50 mg/kg, respectively.

With `COc1cccc(-c2cc3ccccc3nc2SCCN(C)C)c1.Cl`, the ED50 came to 25 mg/kg in the assay with Mus musculus [1] and 5.1 mg/kg in the assay on Rattus norvegicus [2].

Consider `CN(C)CCSc1nc2ccccc2cc1-c1ccccc1F.Cl`, for which the values for the ED50 in the assay with Mus musculus [1] and in the assay on Rattus norvegicus [2] were 1.9 mg/kg and 7.2 mg/kg, respectively.

Consider `CN(C)CCSc1nc2ccccc2cc1C(C)(C)C.O=C(O)C(=O)O`, for which the ID50 entry in the assay on Rattus norvegicus [3] was “inactive”. Besides, in the assay on Mus musculus [1], the ED50 is 50 mg/kg.

Turning to `CC(c1ccccc1)c1cc2ccccc2nc1SCCN(C)C.O=C(O)C(=O)O` (configuration not stated), in the assay on Rattus norvegicus [3], the ID50 result was “inactive”. Besides, in the assay on Mus musculus [1], the ED50 amounted to 50 mg/kg.

With `Cc1cc2ccccc2nc1SCCN(C)C`, the ID50 entry in the assay with Mus musculus [4] and in the assay on Rattus norvegicus [5] was “inactive” each time.

Consider `CCc1cc2ccccc2nc1SCCN(C)C.Cl`, for which the ED50 with Mus musculus [1] and in the assay on Rattus norvegicus [2] was 50 mg/kg in each case.

Consider `CN(C)CCSc1nc2cc(N(C)C)ccc2cc1-c1ccccc1.O=C(O)C(=O)O`, for which, in the assay with Mus musculus [6], the ID50 entry is “inactive”. Also, in the assay with Rattus norvegicus [2], the ED50 came to 50 mg/kg.

On to `COc1c(-c2ccsc2)c(SCCN(C)C)nc2ccccc12.O=C(O)C(=O)O`, for which the ID50 result in the assay with Rattus norvegicus [3] is “inactive”. Moreover, the ED50 in the assay with Mus musculus [1] worked out at 50 mg/kg.

For `COc1ccc2nc(SCCN(C)C)c(-c3ccccc3)cc2c1.O=C(O)C(=O)O`, the ED50 with Mus musculus [1] amounted to 50 mg/kg; in the assay on Rattus norvegicus [2] it was 8.3 mg/kg.

With `COc1ccc(-c2cc3ccccc3nc2SCCN(C)C)cc1.Cl`, the results for the ED50 in the assay with Mus musculus [1] and in the assay on Rattus norvegicus [2] were 5.9 mg/kg and 28 mg/kg, respectively.

For the compound `CNCCSc1nc2ccccc2cc1-c1ccccc1.Cl`, the ED50 in the assay with Mus musculus [1] was determined as 6.2 mg/kg; with Rattus norvegicus [2] it was 7 mg/kg.

On to `Cc1c(C(C)C)c(SCCN(C)C)nc2ccccc12.O=C(O)C(=O)O`, for which the ID50 entry in the assay on Rattus norvegicus [3] was “inactive”. Besides, the ED50 in the assay with Mus musculus [1] came out at 50 mg/kg.

Regarding `CN(C)CCSc1nc2ccccc2cc1-c1ccccn1.O=C(O)C(=O)O`, the results for the ED50 in the assay on Mus musculus [1] and in the assay with Rattus norvegicus [2] were 3.4 mg/kg and 50 mg/kg, respectively.

For the compound `CN(C)CCSc1nc2ccccc2cc1-c1ccc(C#N)cc1.Cl`, the ED50 stood at 1.2 mg/kg with Mus musculus [1] and 10.7 mg/kg with Rattus norvegicus [2].

Take `CSc1ccc(-c2cc3ccccc3nc2SCCN(C)C)cc1.Cl`: the ED50 in the assay with Mus musculus [1] was found to be 10 mg/kg; in the assay filed under Rattus norvegicus [7], 7.8 mg/kg.

Take `CSc1ccc2nc(SCCN(C)C)c(-c3ccccc3)cc2c1.O=C(O)C(=O)O`: the ED50 in the assay on Mus musculus [1] worked out at 50 mg/kg; in the assay on Rattus norvegicus [2], 10.3 mg/kg.

With `CCC(C)c1cc2ccccc2nc1SCCN(C)C.O=C(O)C(=O)O` (configuration not stated), the ED50 is 1.5 mg/kg with Mus musculus [1] and 50 mg/kg with Rattus norvegicus [2].

Regarding `COc1c(-c2ccccc2)c(SCCN(C)C)nc2ccccc12.O=C(O)C(=O)O`, the figures for the ED50 in the assay with Mus musculus [1] and with Rattus norvegicus [2] were 3.5 mg/kg and 5.5 mg/kg, respectively.

As to `Cc1c(-c2ccsc2)c(SCCN(C)C)nc2ccccc12.O=C(O)C(=O)O`, the results for the ED50 with Mus musculus [1] and with Rattus norvegicus [2] were 3.1 mg/kg and 50 mg/kg, respectively.

Turning to `CCCOc1ccc2cc(-c3ccccc3)c(SCCN(C)C)nc2c1.O=C(O)C(=O)O`, the ED50 with Mus musculus [1] and with Rattus norvegicus [2] was 50 mg/kg throughout.

`Cc1ccc2cc(-c3ccccc3)c(SCCN(C)C)nc2c1.O=C(O)C(=O)O`: the ED50 in the assay on Mus musculus [1] and in the assay with Rattus norvegicus [2] was 50 mg/kg each time.

Turning to `CN(C)CCSc1nc2ccccc2cc1-c1cccc(F)c1.Cl`, the ED50 in the assay on Mus musculus [1] worked out at 2.5 mg/kg; in the assay on Rattus norvegicus [2], 4.6 mg/kg.

Regarding `CN(C)CCSc1nc2ccccc2cc1-c1ccc(Cl)cc1.Cl`, in the assay with Rattus norvegicus [8], the ID50 entry is “inactive”. Further, the ED50 in the assay with Mus musculus [1] was determined as 9.1 mg/kg.

On to `CCCc1cc2ccccc2nc1SCCN(C)C.O=C(O)C(=O)O`, for which the ID50 entry with Rattus norvegicus [3] is “inactive”. In addition, the ED50 in the assay filed under Mus musculus [9] is 5 mg/kg.

In the case of `CN(C)CCSc1nc2ccccc2cc1-c1ccccc1Cl.Cl`, the ED50 with Mus musculus [1] was found to be 50 mg/kg; with Rattus norvegicus [2], 9.9 mg/kg.

In the case of `COc1c(-c2ccc(F)cc2)c(SCCN(C)C)nc2ccccc12.O=C(O)C(=O)O`, the ED50 worked out at 50 mg/kg in the assay on Mus musculus [1] and 3.3 mg/kg in the assay on Rattus norvegicus [2].

On to `CN(C)CCSc1nc2ccccc2cc1-c1ccc(F)cc1.Cl`, for which the ED50 with Mus musculus [1] amounted to 1.7 mg/kg; with Rattus norvegicus [2], 2.9 mg/kg.

For `Cc1ncc(-c2cc3ccccc3nc2SCCN(C)C)s1.O=C(O)C(=O)O`, the ED50 in the assay with Mus musculus [1] was 4.9 mg/kg; with Rattus norvegicus [2], 6.9 mg/kg.
